Experimental findings from article PMC8729770, “In Vitro Evaluation of Antimicrobial Peptides from the Black Soldier Fly (Hermetia Illucens) against a Selection of Human Pathogens” (Microbiology Spectrum, 2022) are described below.

Like-named read-outs stand apart in the source and are kept apart here.

As usually defined, the IC50 is the concentration that inhibits the measured activity by half. A low value points to greater potency in that assay.

The test system of assay [1] is S. aureus ATCC 6538. The class given is cell-based, Staphylococcus aureus. The following applies: 16 h; for IC50: MHB, 37°C, resazurin, 50% growth inhibition; for MIC S. aureus ATCC 6538: determined visually. On the procedure:
(§1) To detect antimicrobial activity of the BSF AMPs, the peptide library underwent screening against a panel of microorganisms, consisting of S. aureus ATCC 6538, E. coli ATCC 8739, P. aeruginosa ATCC 9027, C. albicans B59630, and A. fumigatus B42928. Serial dilutions of the peptides were prepared from the DMSO stock solutions in sterile demineralized water in 96-well plates using an automated liquid-handling workstation (Beckman Coulter Biomek 3000) in end volumes of 10 μL. The final in-plate concentration of DMSO was <1%. Peptide concentrations ranged from 64 μM to 0.25 μM for the first evaluation, and from 32 μM to 0.016 μM for the independent repeat. As references, doxycycline (Sigma-Aldrich; S. aureus, E. coli, P. aeruginosa), flucytosine (Sigma-Aldrich; C. albicans), and econazole (Sigma-Aldrich; A. fumigatus) were used. Suspensions of a starting inoculum of 5 × 10^3 CFU/mL (E. coli, S. aureus, C. albicans, A. fumigatus) and 5 × 10^4 CFU/mL (P. aeruginosa) were prepared in MHB (bacterial species) or RPMI medium (fungal species) and 190 μL was added to the 96-well plates. Plates were incubated for 16 h (E. coli, S. aureus, P. aeruginosa), 24 h (C. albicans), or 48 h (A. fumigatus) at 37°C. After incubation, read-out of the antimicrobial activity was performed using a resazurin assay. Then, 20 μL of a 0.01% (wt/vol) resazurin (Sigma-Aldrich) solution was added to each well and plates were incubated for 15 min (S. aureus), 30 min (E. coli), 45 min (P. aeruginosa), 4 h (C. albicans), or 17 h (A. fumigatus) to allow resazurin reduction to take place. Fluorescence was read using a microplate reader (Telix) at λexcitation = 550 nm and λemission = 590. […] MIC values were determined visually. Medium in the wells with no visual growth was plated on MHA to detect the MBC, defined as ≥3 log reduction compared with the growth control.
For orientation: Resazurin is reduced to fluorescent resorufin, in cell work by metabolically active cells.

In assay [2] the test system is A. fumigatus B42928. The format is cell-based, Aspergillus fumigatus. As to conditions: RPMI, 48 h, 37°C, resazurin. On the procedure: as §1
Assay [3] concerns MRC5-SV2 cell line of human, embryonic lung fibroblasts. Kind of assay: Cytotoxicity screening of the peptide library. The class given is cell-based. As to conditions: 72 h, 37°C, resazurin fluorescence. On the procedure:
To determine early signs of peptide toxicity, the library was tested against the MRC5-SV2 cell line of human, embryonic lung fibroblasts (Sigma-Aldrich). Peptides were serially diluted in 96-well plates as described earlier at concentrations ranging from 64 μM to 0.25 μM for the first screening, and from 32 μM to 0.016 μM for the independent repeat. Tamoxifen (Sigma-Aldrich) was included as a reference compound. After preparation of the test plates, cell suspension (190 μL) of 1.5 × 10^5 cells/mL in complete minimum essential medium (Gibco) was added to the peptides. Plates were incubated for 72 h at 37°C in a 5% CO2 incubator (Binder). Afterwards, 50 μL of a 0.01% (wt/vol) resazurin (Sigma-Aldrich) solution was added to the wells to detect cell viability.

In assay [4] the test system is C. albicans B59630. The class given is cell-based, Candida albicans. The following applies: RPMI, 24 h, 37°C, resazurin. The method, then: as §1
The subject of assay [5] is P. aeruginosa ATCC 9027. The class given is cell-based, Pseudomonas aeruginosa. The following applies: for IC50: MHB, 37°C, resazurin; for IC50 / MIC P. aeruginosa ATCC 9027: 16 h; for MIC P. aeruginosa ATCC 9027: determined visually; for MBC P. aeruginosa ATCC 9027: plated on MHA, ≥3 log reduction vs growth control. The method, then:
as §1

Assay [6] relates to E. coli ATCC 8739. The format is cell-based, Escherichia coli. The following applies: for IC50: MHB, 37°C, resazurin; for IC50 / MIC E. coli ATCC 8739: 16 h; for MIC E. coli ATCC 8739: determined visually. The method, then:
as §1

[7] abbreviates: repeat 1, first screening 64-0.25 μM.
[8] abbreviates: repeat 2, independent repeat 32-0.016 μM.

With “DQSKEPFKPMERPYQRVRDAKIQGITIAQNGPNVLAITRGGLEQ [Hill-Cec6, Cecropin, C-terminal amidation]”, the IC50 was above 64 µM in assay [1] (repeat 1, 64-0.25 μM); above 32 µM in assay [1] (repeat 2, 32-0.016 μM); above 64 µM in assay [2] (repeat 1, 64-0.25 μM); above 32 µM in assay [2] (repeat 2, 32-0.016 μM); above 64 µM in assay [3] (setting [7]); above 32 µM in assay [3] (setting [8]). Also, the IC50 is above 64 µM in assay [4] (repeat 1, 64-0.25 μM); above 32 µM in assay [4] (repeat 2, 32-0.016 μM); above 64 µM in assay [5] (repeat 1, 64-0.25 μM); above 32 µM in assay [5] (repeat 2, 32-0.016 μM); above 64 µM in assay [6] (repeat 1, 64-0.25 μM); above 32 µM in assay [6] (repeat 2, 32-0.016 μM). The “MIC S. aureus ATCC 6538” value in assay [1] (repeat 1, 64-0.25 μM) is above 64.00 µM; in assay [1] (repeat 2, 32-0.016 μM) it was above 32.00 µM. Moreover, the “MIC P. aeruginosa ATCC 9027” value in assay [5] (repeat 1, 64-0.25 μM) was above 32.00 µM. For the same sequence, the figures for the “MBC P. aeruginosa ATCC 9027” value in assay [5] (repeat 1) and in assay [5] (repeat 2) were 16.00 µM and 2.00 µM, respectively. Moreover, the “MIC E. coli ATCC 8739” value in assay [6] (repeat 1, 64-0.25 μM) is above 32.00 µM; in assay [6] (repeat 2, 32-0.016 μM), above 64.00 µM. The “MBC E. coli ATCC 8739” value in assay [6] (repeat 2, plated on MHA, ≥3 log reduction vs growth control) amounted to 2.00 µM.
“LSCLFENQAVSAIACGASCITRKGKRGGWCSNGVCRCTPN [Hill-Def6, Defensin without disulfide bridges]”: the IC50 was above 64 µM in assay [1] (repeat 1, 64-0.25 μM); above 32 µM in assay [1] (repeat 2, 32-0.016 μM); above 64 µM in assay [2] (repeat 1, 64-0.25 μM); above 32 µM in assay [2] (repeat 2, 32-0.016 μM); above 64 µM in assay [3] (setting [7]); above 32 µM in assay [3] (setting [8]). In addition, the IC50 in assay [4] (repeat 1, 64-0.25 μM) was above 64 µM; in assay [4] (repeat 2, 32-0.016 μM) it was above 32 µM; in assay [5] (repeat 1, 64-0.25 μM), above 64 µM; in assay [5] (repeat 2, 32-0.016 μM) it was above 32 µM; in assay [6] (repeat 1, 64-0.25 μM), above 64 µM; in assay [6] (repeat 2, 32-0.016 μM) it was above 32 µM. The “MIC S. aureus ATCC 6538” value in assay [1] (repeat 1, 64-0.25 μM) was above 64.00 µM; in assay [1] (repeat 2, 32-0.016 μM), above 32.00 µM. Besides, the “MIC P. aeruginosa ATCC 9027” value in assay [5] (repeat 1, 64-0.25 μM) was above 64.00 µM; in assay [5] (repeat 2, 32-0.016 μM), above 32.00 µM. Further, the “MIC E. coli ATCC 8739” value in assay [6] (repeat 1, 64-0.25 μM) was above 64.00 µM; in assay [6] (repeat 2, 32-0.016 μM), above 32.00 µM.
Take “QLPCDYLSGLGFGEDACNTDCIAKGHKSGFCTGLVCRCRTL [Hill-Def8, Defensin without disulfide bridges]”: the IC50 in assay [1] (repeat 1, 64-0.25 μM) was above 64 µM; in assay [1] (repeat 2, 32-0.016 μM), above 32 µM; in assay [2] (repeat 1, 64-0.25 μM), above 64 µM; in assay [2] (repeat 2, 32-0.016 μM), above 32 µM; in assay [3] (setting [7]), above 64 µM; in assay [3] (setting [8]), above 32 µM. Further, the IC50 in assay [4] (repeat 1, 64-0.25 μM) was above 64 µM; in assay [4] (repeat 2, 32-0.016 μM), above 32 µM; in assay [5] (repeat 1, 64-0.25 μM), above 64 µM; in assay [5] (repeat 2, 32-0.016 μM) it was above 32 µM; in assay [6] (repeat 1, 64-0.25 μM), above 64 µM; in assay [6] (repeat 2, 32-0.016 μM), above 32 µM. The “MIC S. aureus ATCC 6538” value is above 64.00 µM in assay [1] (repeat 1, 64-0.25 μM) and above 32.00 µM in assay [1] (repeat 2, 32-0.016 μM). For the same sequence, the “MIC P. aeruginosa ATCC 9027” value in assay [5] (repeat 1, 64-0.25 μM) is above 64.00 µM; in assay [5] (repeat 2, 32-0.016 μM), above 32.00 µM. Moreover, the “MIC E. coli ATCC 8739” value in assay [6] (repeat 1, 64-0.25 μM) was above 64.00 µM; in assay [6] (repeat 2, 32-0.016 μM) it was above 32.00 µM.
Turning to “TTCDLISGTKIENIACAAHCIAMGHKGGYCNSNLICICR [Hill-Def7, Defensin without disulfide bridges]”, the IC50 in assay [1] (repeat 1, 64-0.25 μM) is above 64 µM; in assay [1] (repeat 2, 32-0.016 μM), above 32 µM; in assay [2] (repeat 1, 64-0.25 μM), above 64 µM; in assay [2] (repeat 2, 32-0.016 μM) it was above 32 µM; in assay [3] (setting [7]) it was above 64 µM; in assay [3] (setting [8]), above 32 µM. The IC50 is above 64 µM in assay [4] (repeat 1, 64-0.25 μM); above 32 µM in assay [4] (repeat 2, 32-0.016 μM); above 64 µM in assay [5] (repeat 1, 64-0.25 μM); above 32 µM in assay [5] (repeat 2, 32-0.016 μM); above 64 µM in assay [6] (repeat 1, 64-0.25 μM); above 32 µM in assay [6] (repeat 2, 32-0.016 μM). For the same sequence, the “MIC S. aureus ATCC 6538” value in assay [1] (repeat 1, 64-0.25 μM) is above 64.00 µM; in assay [1] (repeat 2, 32-0.016 μM), above 32.00 µM. For the same sequence, the “MIC P. aeruginosa ATCC 9027” value in assay [5] (repeat 1, 64-0.25 μM) was above 64.00 µM; in assay [5] (repeat 2, 32-0.016 μM), above 32.00 µM. The “MIC E. coli ATCC 8739” value in assay [6] (repeat 1, 64-0.25 μM) is above 64.00 µM; in assay [6] (repeat 2, 32-0.016 μM), above 32.00 µM.
